Literature values, collected in patent publication US20140080710A1, “COMPOSITIONS WITH HOT MELT RESIN MATRIX” (AgroFresh Inc., priority 2012, published 2014).

System: ethylene receptor
Conditions: compared with ethylene

SMILES: CC1=CC1 [Sample 1-MCP, 1-methylcyclopropene]
- affinity for the receptor relative to that of ethylene: approximately 10 times
